pIC50: −log10 of the molar value.
Key:
[1] = molecular target: T1, Leukotriene A-4 hydrolase (Homo sapiens, UniProt P09960)
T1 sequence (P09960 whole entry): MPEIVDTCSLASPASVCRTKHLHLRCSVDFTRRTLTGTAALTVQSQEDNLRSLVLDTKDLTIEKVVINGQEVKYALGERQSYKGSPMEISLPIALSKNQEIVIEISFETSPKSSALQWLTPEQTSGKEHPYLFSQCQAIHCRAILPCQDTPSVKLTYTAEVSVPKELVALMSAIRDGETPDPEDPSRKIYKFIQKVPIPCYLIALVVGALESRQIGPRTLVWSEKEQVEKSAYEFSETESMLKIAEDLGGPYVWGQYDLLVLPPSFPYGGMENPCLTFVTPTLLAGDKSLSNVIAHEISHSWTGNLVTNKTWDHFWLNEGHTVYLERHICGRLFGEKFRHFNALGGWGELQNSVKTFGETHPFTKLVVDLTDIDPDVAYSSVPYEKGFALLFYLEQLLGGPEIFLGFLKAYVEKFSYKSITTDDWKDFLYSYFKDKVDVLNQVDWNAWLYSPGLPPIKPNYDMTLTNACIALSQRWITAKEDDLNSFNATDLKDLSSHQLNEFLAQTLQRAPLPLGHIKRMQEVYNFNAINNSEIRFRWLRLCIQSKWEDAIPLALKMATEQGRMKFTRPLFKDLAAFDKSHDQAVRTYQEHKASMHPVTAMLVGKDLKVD

[2] = molecular target: T1, Leukotriene A-4 hydrolase; remark: listed apart in the source
[3] = Oral bioavailability in rat; format: ADME, organism-based; conditions: in vivo
[4] = Half life in iv dosed rat; format: ADME, organism-based; conditions: in vivo
[5] = Clearance in iv dosed rat; format: ADME, organism-based; conditions: in vivo
[6] = Metabolic stability in rat microsomes assessed as compound remaining after 1 hr; format: ADME, Microsome; conditions: read-out: Stability
[7] = molecular target: T1, Leukotriene A-4 hydrolase; remark: listed apart in the source

Row | pIC50 [1] | pIC50 [2] | SMILES | other results
1 | < 6.00 | 6.43 | O=C(CNCCCNCc1ccc(C(=O)O)cc1)Nc1ccc(Oc2ccccc2)cc1 | –
2 | 7.05 | 7.77 | CN(CCCN(C)Cc1ccc(C(=O)O)cc1)CC(=O)Nc1ccc(Oc2ccc(Cl)cc2)cc1 | –
3 | 6.37 | 7.60 | CN(CCCN(C)CC1CCC(C(=O)O)CC1)CC(=O)Nc1ccc(Oc2ccccc2)cc1 (stereo not given) | –
4 | 6.80 | 8.15 | CN(CCCN(C)Cc1ccc(C(=O)O)cc1F)CC(=O)Nc1ccc(Oc2ccccc2)cc1 | –
5 | < 6.00 | 7.48 | CN(CCCN(C)Cc1ccc(S(N)(=O)=O)cc1)CC(=O)Nc1ccc(Oc2ccccc2)cc1 | –
6 | 6.54 | 7.82 | CN(CCCN(C)Cc1ccc(C(=O)O)cc1[N+](=O)[O-])CC(=O)Nc1ccc(Oc2ccccc2)cc1 | –
7 | 6.47 | 8.22 | CN(CCCN(C)Cc1ccc(C(=O)O)c(F)c1)CC(=O)Nc1ccc(Oc2ccccc2)cc1 | –
8 | 6.44 | 8.00 | CN(CCCN(C)Cc1ccc(C(=O)O)c(Br)c1)CC(=O)Nc1ccc(Oc2ccccc2)cc1 | –
9 | 7.52 | 8.15 | CN(CC(=O)Nc1ccc(Oc2ccccc2)cc1)C[C@H]1CCCN1Cc1ccc(C(=O)O)cc1 | bioavailability [3]: 45%; half-life [4]: 2.6 h; clearance [5]: 28 mL/min/kg
10 | 6.46 | 7.05 | CN(CCCN(C)Cc1ccccc1)CC(=O)Nc1ccc(Oc2ccccc2)cc1 | remaining at 1 h [6]: < 33%
11 | 5.82 | 6.96 | CN(CCCC(=O)O)CCCN(C)CC(=O)Nc1ccc(Oc2ccccc2)cc1 | –
12 | 6.64 | 7.74 | CN(CCCCC(=O)O)CCCN(C)CC(=O)Nc1ccc(Oc2ccccc2)cc1 | –
13 | 6.92 | 8.22 | CN(CCCN(C)Cc1ccc(C(=O)O)cc1)CC(=O)Nc1ccc(Oc2ccccc2)cc1 | remaining at 1 h [6]: > 90%; bioavailability [3]: 45%; half-life [4]: 0.9 h; clearance [5]: 38 mL/min/kg
14 | 6.64 | 7.80 | CN(CCCN(C)Cc1ccc(C(=O)O)cc1)CC(=O)Nc1ccc(Oc2ccccc2F)cc1 | –
15 | 6.87 | 6.80 | CN(C)CCCN(C)CC(=O)Nc1ccc(Oc2ccccc2)cc1 | remaining at 1 h [6]: < 33%
16 | < 6.00 | 6.48 | CN(CCCNCC(=O)Nc1ccc(Oc2ccccc2)cc1)Cc1ccc(C(=O)O)cc1 | –
17 | 6.38 | 7.72 | CN(CCCNCc1ccc(C(=O)O)cc1)CC(=O)Nc1ccc(Oc2ccccc2)cc1 | –
18 | < 6.00 | 6.00 | O=C(CN1CCN(Cc2ccc(C(=O)O)cc2)CC1)Nc1ccc(Oc2ccccc2)cc1 | –
19 | 6.70 | 7.00 | CN(CC(=O)Nc1ccc(Oc2ccccc2)cc1)C[C@@H]1CCCN1Cc1ccc(C(=O)O)cc1 | –
20 | 6.60 | 8.40 | CN(CCCN(C)Cc1ccc(-c2nnn[nH]2)cc1)CC(=O)Nc1ccc(Oc2ccccc2)cc1 | –
21 | 6.74 | 6.92 | CN(CC(=O)Nc1ccc(Oc2ccccc2)cc1)C1CCN(Cc2ccc(C(=O)O)cc2)C1 (stereo in doubt; 4t) | –
22 | 6.66 | 7.24 | CN(CC(=O)Nc1ccc(Oc2ccccc2)cc1)C1CCN(Cc2ccc(C(=O)O)cc2)C1 (stereo in doubt; 4u) | –

Row | SMILES | pIC50 [1] | pIC50 [2] | other results
23 | CN(CCCN(C)Cc1ccc(C(=O)O)cc1)CC(=O)Nc1ccc(OCC(O)c2ccccc2)cc1 (stereo not given) | 6.68 | 7.72 | –
24 | CN(CCCN(C)Cc1ccc(C(=O)O)cc1)CC(=O)Nc1ccc(Oc2ccc(-c3ncco3)cc2)cc1 | 7.22 | 8.30 | –
25 | CN(Cc1ccc(C(=O)O)cc1)C1CCCN(CC(=O)Nc2ccc(Oc3ccccc3)cc2)CC1 (stereo not given) | 6.66 | 6.85 | –
26 | CN(CCCN(C)CC(=O)Nc1ccc(Oc2ccccc2)cc1)CCc1ccc(C(=O)O)cc1 | 7.10 | 8.52 | –
27 | CN(Cc1ccc(C(=O)O)cc1)C1CCN(CC(=O)Nc2ccc(Oc3ccccc3)cc2)CC1 | 6.59 | 6.31 | –
28 | O=C(CN1CCCN(Cc2ccc(C(=O)O)cc2)CC1)Nc1ccc(Oc2ccccc2)cc1 | 6.74 | 7.15 | –
29 | CN(CCCN(C)Cc1ccc(C(=O)O)cc1)CC(=O)Nc1ccc(Oc2ccc(F)cc2)cc1 | 6.92 | 8.22 | –
30 | CN(CC(=O)Nc1ccc(Oc2ccccc2)cc1)C1CCCN(Cc2ccc(C(=O)O)cc2)CC1 (stereo not given) | 6.42 | 6.80 | –
31 | CN(CCN(C)Cc1ccc(C(=O)O)cc1)CC(=O)Nc1ccc(Oc2ccccc2)cc1 | 6.85 | 7.82 | –
32 | CN(CCCN(C)Cc1ccc(C(=O)O)o1)CC(=O)Nc1ccc(Oc2ccccc2)cc1 | 6.36 | 7.55 | –
33 | CN(CCCN(C)Cc1ccc(C(=O)O)cc1)CC(=O)Nc1ccc(Cc2ccccc2)cc1 | 7.15 | 8.52 | –
34 | O=C(CN1CC2CC1CN2Cc1ccc(C(=O)O)cc1)Nc1ccc(Oc2ccccc2)cc1 (stereo not given) | 6.62 | 7.36 | –
35 | CN(Cc1ccc(C(=O)O)cc1)CC1CCCCN1CC(=O)Nc1ccc(Oc2ccccc2)cc1 (stereo in doubt; 4n) | 7.00 | 7.77 | –
36 | CN(Cc1ccc(C(=O)O)cc1)CC1CCCCN1CC(=O)Nc1ccc(Oc2ccccc2)cc1 (stereo in doubt; 4o) | 7.22 | 7.80 | –
37 | CN(Cc1ccc(C(=O)O)cc1)CC1CCCN1CC(=O)Nc1ccc(Oc2ccccc2)cc1 (stereo in doubt; 4r) | – | 7.59 | pIC50 [7]: 7.22
38 | CN(Cc1ccc(C(=O)O)cc1)CC1CCCN1CC(=O)Nc1ccc(Oc2ccccc2)cc1 (stereo in doubt; 4s) | 7.22 | 7.77 | –

From ChEMBL document CHEMBL1155105, “Synthesis of N-alkyl glycine amides as potent inhibitors of leukotriene A4 hydrolase” (Bioorg Med Chem Lett, 2008)
